According to patent US20140274927A1, “TNF-Related Biomarkers For Assessing Cancer Cell Response To Treatment With Taxane And/Or Anthracycline Drugs” (priority 2013, published 2014):
Where two headings read alike, the source gives them in different places.

Legend:
monocyte TNF levels = conditions: gastric cancer patients, chemotherapy; cited from earlier work
[1] = system: A2780 ovarian tumour cells; conditions: cited from earlier work
MCF-7CC cells [2] = test: Clonogenic assay
Description: (§1) Cellular sensitivity to TNFα or docetaxel was assessed using a clonogenic assay as described previously. Docetaxel resistance factors for the cell lines were determined by dividing the IC50 for docetaxel in the taxane-resistant cell lines by the IC50 for MCF-7CC cells. […] (SN-50, 7 μg/ml). A control peptide at the same concentration (SN-50M) was used in the latter experiments to assess the specificity of NF-κB inhibition.

MCF-7TXT cells [3] = test: Clonogenic assay
Description: (§2) MCF-7 cells from the American Tissue Culture Collection (catalog number HTB-22) were cultured or selected for survival in increasing doses of docetaxel or paclitaxel as previously described [17;18]. The initial concentrations of docetaxel and paclitaxel used to begin selection (dose 1) were 0.51 and 0.56 nM, respectively. Cells selected to docetaxel concentrations of 1.11 nM (dose 8, MCF-7TXT8), 3.33 nM (dose 9, MCF-7TXT9), 5.00 nM (dose 10, MCF-7TXT10), 15 nM (dose 11, MCF-7TXT11), and 45 nM (dose 12, MCF-7TXT12) were used in this study. Numbers in subscripts of cell line names refer to the maximum docetaxel dose level to which the cells were exposed. The paclitaxel resistant cell line used in this study was selected in an identical manner to a final concentration of 6.64 nM paclitaxel (MCF-7TAX-1 cells; hyphenated number indicates the first cell line selection, not drug dose). […] A2780 ovarian carcinoma cells from the European Collection of Cell Cultures were also selected for resistance to docetaxel in an identical manner (A2780DXL cells), including the creation of “co-cultured control” A2780CC cells.
as §1

MCF-7TAX-1 cells [4] = conditions: cited from earlier work
MCF-7CC cells [5] = test: sTNFα in cell culture medium by ELISA; type: cell-based, human
Description: (§3) Concentrated proteins from the medium of two million MCF-7CC, MCF-7TXT or A2780 cells (grown in culture in the absence or presence of various concentrations of paclitaxel or docetaxel) were assessed for levels of sTNFα or sTNFR1 using ELISA kits from R&D Systems™, following the manufacturer's instructions.

MCF-7TXT cells [6] = test: sTNFα in cell culture medium by ELISA; type: cell-based, human; conditions: for sTNFα levels: 50 nM docetaxel
Description: as §3

A2780 cells = test: sTNFα in cell culture medium by ELISA; type: cell-based, human
Description: as §3

murine macrophages = conditions: cited from earlier work
[7] = system: NF-κB p65 and p50 subunits; test: NF-κB activity in nuclear extracts (TransAM NF-κB Family ELISA); type: cell-based, human; conditions: MCF-7CC and MCF-7TXT cells, 50 nM docetaxel 24 hours; except selection doses >15 nM (dose 11 and 12)
Description: MCF-7CC and MCF-7TXT cells were cultured in the presence or absence of 50 nM docetaxel for 24 hours. The activity of the NF-κB p65 and p50 subunits in 10 μg of nuclear extracts was assessed as outlined in the TransAM™ NF-κB Family ELISA kit (Active Motif™, Carlsbad, Calif.). Readings at 450 nm were normalized to the sum of all readings on the plate in order to compare across triplicate experiments.

[8] = system: serum levels of proinflammatory cytokines, including TNFα; conditions: castration-resistant prostate cancer patients, two days after administration; cited from earlier work
MCF-7TAX-1 cells [9] = test: sTNFα in cell culture medium by ELISA; type: cell-based, human; conditions: presence or absence of docetaxel
A2780DXL cells = test: Clonogenic assay; type: cell-based, human; conditions: A2780DXL cells at maximally tolerated dose (405 nM)
Description: as §2, §1

[10] = breast cancer patients following docetaxel infusion; cited from earlier work
C2C12 myotubes = conditions: cited from earlier work
MCF-7TXT cells [11] = conditions: cited from earlier work
MCF-7TAX-1 cells [12] = test: Clonogenic assay; type: cell-based, human
Description: as §2, §1

For O=c1[nH]cc(F)c(=O)[nH]1 [5FU], the “monocyte TNF levels” value (monocyte TNF levels) is listed as “no effect”.

In the case of CC[C@@]1(O)C(=O)OCc2c1cc1n(c2=O)Cc2cc3c(CN(C)C)c(O)ccc3nc2-1 [Topotecan], the “TNF alpha production / levels” value [1] is given as “no effect on TNF alpha levels”.

In the case of N.N.[Cl][Pt][Cl] [cisplatin], the “TNF alpha production / levels” value [1] is listed as “increased TNF alpha production”.

For C[C@@H]1C[C@@H]([C@H](O)CC2CC(=O)NC(=O)C2)C(=O)[C@@H](C)C1 [cycloheximide], the “effect on TNFα cytotoxicity” value (MCF-7CC cells [2]; cycloheximide 5 μg/mL with 10 ng/mL TNFα, 24 hours) was “only a small additional effect” and the “effect on TNFα cytotoxicity” value (MCF-7TXT cells [3]; MCF-7TXT10 cells, cycloheximide 5 μg/mL with 10 ng/mL TNFα, 24 hours) was “restored TNFα's ability to be cytotoxic”.

For CC(=O)O[C@@]12CO[C@@H]1C[C@H](O)[C@@]1(C)C(=O)[C@H](O)C3=C(C)[C@@H](OC(=O)[C@H](O)[C@@H](NC(=O)OC(C)(C)C)c4ccccc4)C[C@@](O)([C@@H](OC(=O)c4ccccc4)[C@H]21)C3(C)C [docetaxel], the “cross resistance to docetaxel” value (MCF-7TAX-1 cells [4]) is listed as 46 fold, the “sTNFα levels in media” value (MCF-7CC cells [5]; MCF-7CC cells, 3 nM docetaxel, 48 hours) is listed as “significantly elevated” and the sTNFα secretion (MCF-7CC cells [5]; MCF-7CC cells, 50 nM docetaxel versus untreated) is listed as “no significant difference”. The sTNFα levels secreted (MCF-7CC cells [5]; MCF-7CC cells, 0.1 to 1 nM docetaxel, versus untreated) was “not significantly changed”, the “TNFα production and sTNFα release” value (MCF-7CC cells [5]; breast tumor cells, docetaxel 3 to 45 nM) was “can stimulate TNFα production and sTNFα release” and the sTNFα secretion (MCF-7TXT cells [6]; MCF-7TXT8 cells, 50 nM docetaxel versus untreated) was “no significant difference”. The “further increase of sTNFα production” value (MCF-7TXT cells [6]; MCF-7TXT9 cells, 50 nM docetaxel versus untreated) was 1.62 fold, the “further increase of sTNFα production” value (MCF-7TXT cells [6]; MCF-7TXT10 cells, 50 nM docetaxel versus untreated) was 1.27 fold and the sTNFα levels (MCF-7TXT cells [6]; MCF-7TXT11 cells) was “returned to basal levels”. For the same compound, the sTNFα levels (MCF-7TXT cells [6]; MCF-7TXT12 cells) was “returned to basal levels”, the sTNFα levels secreted (A2780 cells; A2780CC cells, 0.1 to 1 nM docetaxel, versus untreated) was “not significantly changed” and the “TNFα produced in response to docetaxel” value (A2780 cells; A2780 cells, compared with MCF-7CC cells, 48 hours) was “even greater amounts”. For the same compound, the “TNFα production and sTNFα release” value (A2780 cells; ovarian tumor cells, docetaxel 3 to 45 nM) was “can stimulate TNFα production and sTNFα release”, the docetaxel sensitivity (MCF-7TXT cells [3]; MCF-7TXT8 cells (selected to 1.1 nM docetaxel) versus MCF-7CC) was “did not affect docetaxel sensitivity” and the “resistance to docetaxel (IC50 ratio to MCF-7CC)” value (MCF-7TXT cells [3]; MCF-7TXT9 cells (selected to 3.33 nM docetaxel)) was 11.4 fold. It also gave a docetaxel resistance factor (MCF-7TXT cells [3]; MCF-7TXT10 cells (selected to 5 nM docetaxel)) of 16.6, a docetaxel resistance factor (MCF-7TXT cells [3]; MCF-7TXT11 cells (selected to 15 nM docetaxel)) of 32.8 and a docetaxel resistance factor (MCF-7TXT cells [3]; MCF-7TXT12 cells (selected to 45 nM docetaxel)) of 184. For the same compound, the TNFα expression (murine macrophages; same study) was “no effect”, the “p65 and p50 subunit binding to the NF-κB sequence” value [7] was “even higher levels” and the “serum levels of proinflammatory cytokines, including TNFα” value [8] was “increased”. The “sTNFα levels versus MCF-7CC” value (MCF-7TAX-1 cells [9]) was “No differences”, the resistance to docetaxel (A2780DXL cells) was about 4000 fold and the “plasma levels of docetaxel” value [10] was 10 to 75 nM.

In the case of COc1cccc2c1C(=O)c1c(O)c3c(c(O)c1C2=O)C[C@@](O)(C(=O)CO)C[C@@H]3O[C@H]1C[C@H](N)[C@H](O)[C@H](C)O1 [doxorubicin], the TNFα expression (MCF-7CC cells [5]; MCF-7 breast tumour cells, FIG. 1D) is listed as “induces TNFα expression”, the TNFα expression (A2780 cells; A2780 ovarian tumour cells, FIG. 1E) is listed as “induces TNFα expression” and the “TNF alpha production / levels” value [1] is listed as “increased TNF alpha production”. The “monocyte TNF levels” value (monocyte TNF levels) was “no effect”.

In the case of CO[C@@]12[C@H](COC(N)=O)C3=C(C(=O)C(C)=C(N)C3=O)N1C[C@@H]1N[C@@H]12 [mitomycin C], the “monocyte TNF levels” value (monocyte TNF levels) is listed as “no effect”.

For CC(=O)O[C@H]1C(=O)[C@@]2(C)[C@H]([C@H](OC(=O)c3ccccc3)[C@]3(O)C[C@H](OC(=O)[C@H](O)[C@@H](NC(=O)c4ccccc4)c4ccccc4)C(C)=C1C3(C)C)[C@]1(OC(C)=O)CO[C@@H]1C[C@@H]2O [paclitaxel], the TNFα production (C2C12 myotubes; 4 hours following treatment, paclitaxel 10 nM to 10 μM) is listed as “did not induce increased TNFα production”, the NF-κB activity (C2C12 myotubes) is listed as “induced NF-κB activity” and the sTNFα production (A2780 cells; A2780 cells, paclitaxel at concentrations 15 nM, compared with docetaxel) is listed as “even higher levels”. For the same compound, the sTNFα release (A2780 cells; ovarian tumor cells, paclitaxel 5 and 15 nM) was “dramatically increase sTNFα release”, the sTNFα release (murine macrophages; levels unachievable in patients) was “increase sTNFα release” and the “cross-resistance to paclitaxel, resistance factor” value (MCF-7TXT cells [11]; selection dose 11) was 148. The “cross-resistance to paclitaxel, resistance factor” value (MCF-7TXT cells [11]; selection dose 12) was 251 and the paclitaxel resistance factor (MCF-7TAX-1 cells [12]; maximally tolerated dose of paclitaxel) was 42.

For CC[C@]1(O)C[C@@H]2CN(CCc3c([nH]c4ccccc34)[C@@](C(=O)OC)(c3cc4c(cc3OC)N(C)[C@H]3[C@@](O)(C(=O)OC)[C@H](OC(C)=O)[C@]5(CC)C=CCN6CC[C@]43[C@@H]65)C2)C1 [vinblastine], the “TNF alpha production / levels” value [1] is given as “increased TNF alpha production”.

In the case of TNFα, the NF-κB activity (C2C12 myotubes) is listed as “induced NF-κB activity”, the colony formation (MCF-7CC cells [2]; TNFα 50 or 100 ng/mL) is listed as “very strongly reduced” and the “reduction of colony formation” value (MCF-7TXT cells [3]; MCF-7TXT8 cells, TNFα 10 ng/ml) is listed as 66.6±1.7%. The “colony formation in absence or presence of TNFα” value (MCF-7TXT cells [3]; MCF-7TXT10 cells, TNFα 10 ng/mL) was “significant resistance to TNFα”, the “reductions in colony formation” value (MCF-7TXT cells [3]; MCF-7TXT10 cells, TNFα 50 ng/mL or 100 ng/mL, compared with MCF-7CC) was “much smaller” and the colony formation (MCF-7TXT cells [3]; MCF-7TXT12 cells, TNFα 10 ng/mL) was “increased colony formation”. The colony formation (MCF-7TAX-1 cells [12]; TNFα 50 or 100 ng/ml, relative to MCF-7TXT10) was “strong reductions in colony formation”.
